In patent publication US20090075397A1, “Method for characterizing sugar-binding interactions of biomolecules” (Academia Sinica, priority 2007, published 2009):

T1: lectin UEA-1 (Ulex europaeus, UniProt P22972)
T1 construct: purchased EY Labs, Inc
T1 sequence (P22972 1-243): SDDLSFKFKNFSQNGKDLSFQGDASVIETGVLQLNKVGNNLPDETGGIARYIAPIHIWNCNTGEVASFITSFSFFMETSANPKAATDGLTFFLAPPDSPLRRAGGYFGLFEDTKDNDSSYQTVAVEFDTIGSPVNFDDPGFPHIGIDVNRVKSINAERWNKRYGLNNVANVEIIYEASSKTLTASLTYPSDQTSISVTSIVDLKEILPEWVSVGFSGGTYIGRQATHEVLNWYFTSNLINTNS

B1: PNA: lectin of Arachis hypogaea (protein, UniProt P02872 24-273, looked up)
Galactose-binding lectin: AETVSFNFNSFSEGNPAINFQGDVTVLSNGNIQLTNLNKVNSVGRVLYAMPVRIWSSATGNVASFLTSFSFEMKDIKDYDPADGIIFFIAPEDTQIPAGSIGGGTLGVSDTKGAGHFVGVEFDTYSNSEYNDPPTDHVGIDVNSVDSVKTVPWNSVSGAVVKVTVIYDSSTKTLSVAVTNDNGDITTIAQVVDLKAKLPERVKFGFSASGSLGGRQIHLIRSWSFTSTLITTTRRSIDNNEKKIMNMASA

Experiments:
[1] = test system: H1N1 virus (A/Beijing/262/95); format: binding, influenza virus H1N1 (A/Beijing/262/95); conditions: virus particles on acceptor beads, FIG. 5A
[2] = test system: recombinant hemagglutinin (HA) of H1N1 (A/Beijing/262/95); format: binding, influenza virus H1N1 (A/Beijing/262/95)
lectin UEA-1 = biological target: T1, lectin UEA-1; test: ALPHAScreen sugar/protein binding assay, sugar on donor beads, lectin on acceptor beads; conditions: sugar linked to streptavidin donor beads, UEA-1 on acceptor beads
anti-Lex antibody = test: ALPHAScreen sugar/protein binding assay, sugar on donor beads, antibody on acceptor beads; conditions: sugar linked to streptavidin donor beads
[3] = ALPHAScreen profiling of lectin binding specificities with biotinylated PAA-sugars; conditions: for Binding specificities: Table 2 (SI), examined lectins
[4] = test system: H3N2 virus (A/Panama/2007/99); format: binding, influenza virus H3N2 (A/Panama/2007/99); conditions: virus particles on acceptor beads, FIG. 5B

Molecule | recognition by H1N1 virus (A/Beijing/262/95) [1] | recognition by HA of H1N1 (A/Beijing/262/95) [2] | further results
CC(=O)N[C@H]1C(O)O[C@H](CO[C@]2(C(=O)O)C[C@H](O)[C@@H](NC(=O)CO)[C@H]([C@H](O)[C@H](O)CO)O2)[C@H](O)[C@@H]1O (stereo partly drawn) [Glycan No. 22, NeuGcα2-6GalNAc] | do not recognize | do not recognize | –
CC(=O)N[C@H]1[C@H]([C@H](O)[C@H](O)CO)O[C@@](O[C@H]2[C@@H](O)[C@@H](CO)OC(O)[C@@H]2NC(C)=O)(C(=O)O)C[C@@H]1O (stereo partly drawn) [Glycan No. 27, NeuAcα2-3GalNAc] | do not recognize | do not recognize | –
α-L-Fuc [Glycan No. 6] | – | – | binding signal with lectin UEA-1 (lectin UEA-1): able to produce signals
Galβ1-4(Fucα1-3)GlcNAc (Le^x) [Glycan No. 33] | – | – | binding signal with anti-Lex antibody (anti-Lex antibody): able to produce signals
SBA: lectin of Glycine max | – | – | Binding specificities [3]: GalNAc/Gal
(NeuAcα2-8)5-6 [Glycan No. 52] | do not recognize | do not recognize | recognition by H3N2 virus (A/Panama/2007/99) [4]: accepted
B1 | – | – | Binding specificities [3]: Galβ1-3GalNAc; lectin sugar binding specificity ([3]; profiled with more than 50 biotinylated PAA-sugars, FIG. 2): binds to the Galb1-3GalNAc structure specifically
